Assay results reported in PMC9701179, “New tricyclic systems as photosensitizers towards triple negative breast cancer cells” (Archives of Pharmacal Research, 2022).
Like-named read-outs stand apart in the source and are kept apart here.

Legend:
MDA-MB-231 cells [1] = assay: MTT cytotoxicity/photocytotoxicity test on human TNBC MDA-MB-231 cells; assay type: cell-based; conditions: for IC50: Homo sapiens
Experimental: The irradiation device used for the irradiation of cell cultures during the assays was a black box equipped with two Philips UVA lamps with an irradiance of 17 mW cm^−2 and a centered emission peak at 365 nm; UVA irradiance was measured using a Waldmann Variocontrol radiometer, equipped with a UVA sensor. The box was maintained at room temperature inside with a fan and the multiwell plates were placed onto a water-refrigerated metal block.
Human triple negative (TNBC) breast MDA-MB-231 carcinoma cells were obtained from American Type Culture Collection (ATCC, Rockville, MD, USA). Human embryonic kidney HEK293 cells were obtained from the European Collection of Cell Cultures (ECACC, Salisbury, UK). Cell lines were maintained in the logarithmic phase at 37 °C in a 5% CO2 atmosphere using the following culture media containing 10% foetal calf serum (Euroclone, Milan, Italy), antibiotics (50 units/mL penicillin and 50 μg/mL streptomycin) and 2 mM l-glutamine: (i) RPMI-1640 medium (Euroclone, Milan, Italy) for MDA-MB-231 4 cells; (ii) DMEM (Euroclone, Milan, Italy) for HEK293 cells.
Cells (5–8 × 10^3 cells/well, dependent upon the growth characteristics of the cell line) were seeded in 96-well microplates in growth medium (100 μL). After 24 h, the medium was removed and replaced with a fresh one containing the compound to be studied at the appropriate concentration. Triplicate cultures were established for each treatment. For photocytotoxicity studies, after 1 h of incubation the medium was replaced with PBS and cells were treated with 2.0 J cm^−2 of UVA light. After irradiation, PBS was replaced with complete proliferation media. For pre-irradiation studies, instead, compounds in PBS were irradiated with 2.0 J cm^−2 of UVA light and subsequently cells were treated with pre-irradiated solutions. Following 24 h, each well was treated with 10 μL of a 5 mg/mL MTT saline solution, and following 5 h of incubation, 100 μL of a sodium dodecyl sulfate (SDS) solution in HCl 0.01 M were added. After an overnight incubation, cell growth inhibition was detected by measuring the absorbance of each well at 570 nm using a Bio-Rad 680 microplate reader. Mean absorbance for each drug dose was expressed as a percentage of the control untreated well absorbance and plotted against drug concentration. IC50 values, the drug concentrations that reduce the mean absorbance at 570 nm to 50% of those in the untreated control wells, were calculated by the four-parameter logistic (4-PL) model. Evaluation was based on means from at least four independent experiments.
The new synthetized pyrrolo[1,2-h][1,7]naphthyridinones 7 and pyrido[2,3-c]pyrrolo[1,2-a]azepinones 8 were screened for their cytotoxicity (in the dark) and photocitotoxicity (upon UVA light irradiation at 2.0 J/cm^2) profile on human TNBC cells, MDA-MB-231. The cytotoxicity/photocytotoxicity parameters, expressed in terms of IC50 values obtained by MTT test after 24 h of drug-exposure, are listed in Table 2.

MDA-MB-231 cells [2] = assay: Mitochondrial membrane potential (Mito-ID kit); assay type: cell-based, human; conditions: MDA-MB-231, UVA 2.0 J/cm^2; CCCP positive control
Experimental: The ΔΨ was assayed using the Mito-ID® Membrane Potential Kit according to the manufacturer’s instructions (Enzo Life Sciences, Farmingdale, NY, USA) as previously described. Briefly, MDA-MB-231 cells (8 × 10^3 per well) were seeded in 96-well plates; after 24 h, cells were washed with PBS and loaded with Mito-ID Detection Reagent for 30 min at 37 °C in the dark. Afterwards, cells were incubated with increasing concentrations of tested compounds for 90 min and after that exposed to UVA light (2.0 J/cm^2). CCCP (Carbonyl cyanide 3-chlorophenyl-hydrazone) was used as positive control. Fluorescence intensity was estimated using a VICTOR X3 (PerkinElmer, USA) plate reader at 490 (excitation) and 590 nm (emission).
Induction of ROS production can in turn prompt the collapse of mitochondrial membrane potential as well as loss of mitochondrial integrity and functioning. […] MDA-MB-231 TNBC cells were treated with tested compounds upon UVA irradiation and the percentage of cells with hypopolarized mitochondrial membrane potential was determined fluorometrically by means of the Mito-ID® Membrane Potential Kit.
Fig. 5 Effects on mitochondrial membrane potential (A) and cell death induction (B) in human breast MDA-MB-231 cancer cells. A Cells were treated with 7h and 8e and stained with TMRM (10 nM). Fluorescence was estimated at 490 nm (excitation) and 590 nm (emission). Data are the means of five independent experiments. Error bars indicate S.D. * P < 0.05. B Cells were treated with concentrations of 7h and 8e equal to IC50 for 24 h and stained with the fluorescent dyes Hoechst 33342 and PI

MDA-MB-231 cells [3] = assay: Intracellular ROS production (CM-H2DCFDA) under UVA; assay type: cell-based, human; conditions: MDA-MB-231, 25 µM, 90 min, UVA 2.0 J/cm^2; antimycin 3 µM positive control
Experimental: The production of ROS was measured in MDA-MB-231 cells (10^4 per well) grown for 24 h in a 96-well plate in RPMI medium without phenol red (Merk, Germany). Cells were then washed with PBS and loaded with 10 μM 5-(and-6)-chloromethyl-2′,7′-dichlorodihydrofluorescein diacetate acetyl ester (CM–H2DCFDA) (Molecular Probes-Invitrogen, Eugene, OR) for 45 min, in the dark. Afterwards, cells were washed with PBS and incubated with tested compounds (25 µM) for 90 min and after that exposed to UVA light (2.0 J/cm^2). Fluorescence increase was estimated utilizing the wavelengths of 485 nm (excitation) and 527 nm (emission) in a VICTOR X3 (PerkinElmer, USA) plate reader. Antimycin (3 μM, Merk), a potent inhibitor of Complex III in the electron transport chain, was used as positive control.
ROS production under light (UVA, 2.0 J/cm^2) was evaluated in MDA-MB-231 cell samples treated with increasing concentrations of tested compounds or antimycin, a potent inhibitor of Complex III of mitochondria electron chain, used as a positive control under the same experimental conditions (Fig. 4).
Fig. 4 Cellular ROS production (A) and total thiol redox state (B). A Effect of UVA activated tested compounds (25 µM) or antimycin (3 µM) on hydrogen peroxide formation in MDA-MB-231 cancer cells. B Sulfhydryl content in MDA-MB-231 cancer cells incubated for 24 h with UVA activated tested compounds. The sulfhydryl group amount was determined by the DTNB assay. Error bars indicate S.D

[4] = MDA-MB-231, in the dark, 1 h pre-treatment, recovered for total 24 h, read-out: Dark IC50 (µM) ± S.D
[5] = light or radiation study, MDA-MB-231, 1 h pre-treatment, UVA 2.0 J/cm^2, recovered for total 24 h, read-out: UVA (2.0 J/cm^2) IC50 (µM) ± S.D

Row | melting point | SMILES | IC50 (MDA-MB-231 cells [1]; [4]) | IC50 (MDA-MB-231 cells [1]; [5]) | Cells with depolarized mitochondria (mitochondrial membrane potential) (MDA-MB-231 cells [2]) | Cellular ROS production (hydrogen peroxide formation) (MDA-MB-231 cells [3]) | UVA (2.0 J/cm^2) IC50 (µM) ± S.D (MDA-MB-231 cells [1]; MDA-MB-231, 1 h pre-treatment, UVA 2.0 J/cm^2, recovered for total 24 h)
1 | 317 to 318 °C | O=c1[nH]c2c(cc1S(=O)(=O)c1ccccc1)CCn1cccc1-2 [Compound 7a, 3-(benzenesulfonyl)-5,6-dihydropyrrolo[1,2-h][1,7]naphthyridin-2(1H)-one] | > 50 µM | > 50 µM |  |  | 
2 |  | CCOC(=O)c1ccc2n1CCc1cc(S(=O)(=O)c3ccccc3)c(=O)[nH]c1-2 [Compound 7b, Ethyl 3-(benzenesulfonyl)-2-oxo-1,2,5,6-tetrahydropyrrolo[1,2-h][1,7]naphthyridine-8-carboxylate] | > 50 µM | 21 ± 0.4 µM |  |  | 
3 |  | CC(C)OC(=O)c1ccc2n1CCc1cc(S(=O)(=O)c3ccccc3)c(=O)[nH]c1-2 [Compound 7c, Propan-2-yl 3-(benzenesulfonyl)-2-oxo-1,2,5,6-tetrahydropyrrolo[1,2-h][1,7]naphthyridine-8-carboxylate] | > 50 µM | > 50 µM |  |  | 
4 | 268 to 269 °C | Cn1c2c(cc(S(=O)(=O)c3ccccc3)c1=O)CCn1cccc1-2 [Compound 7d, 1-Methyl-3-(benzenesulfonyl)-5,6-dihydropyrrolo[1,2-h][1,7]naphthyridin-2(1H)-one] | > 50 µM | > 50 µM |  |  | 
5 |  | CCOC(=O)c1ccc2n1CCc1cc(S(=O)(=O)c3ccccc3)c(=O)n(C)c1-2 [Compound 7e, Ethyl 3-(benzenesulfonyl)-1-methyl-2-oxo-1,2,5,6-tetrahydropyrrolo[1,2-h][1,7]naphthyridine-8-carboxylate] | > 50 µM | > 50 µM | did not induce a substantial change in mitochondrial membrane potential | hardly effective in inducing any ROS basal level production increase | 
6 |  | CC(C)OC(=O)c1ccc2n1CCc1cc(S(=O)(=O)c3ccccc3)c(=O)n(C)c1-2 [Compound 7f, Propan-2-yl 3-(benzenesulfonyl)-1-methyl-2-oxo-1,2,5,6-tetrahydropyrrolo[1,2-h][1,7]naphthyridine-8-carboxylate] | > 50 µM | > 50 µM |  |  | 
7 | 210 to 211 °C | COc1nc2c(cc1S(=O)(=O)c1ccccc1)CCn1cccc1-2 [Compound 7g, 2-methoxy-3-(phenylsulfonyl)-5,6-dihydropyrrolo[1,2-h][1,7]naphthyridine] | > 50 µM | > 50 µM |  |  | 
8 |  | COc1nc2c(cc1S(=O)(=O)c1ccccc1)CCn1c(C(=O)OC(C)C)ccc1-2 [Compound 7i, Propan-2-yl 3-(benzenesulfonyl)-2-methoxy-5,6-dihydropyrrolo[1,2-h][1,7]naphthyridine-8-carboxylate] | > 50 µM | 7.9 ± 0.5 µM |  |  | 
9 | 196 to 197 °C | CCOC(=O)C1(Br)C=CC2=C3NC(=O)C(S(=O)(=O)c4ccccc4)C=C3CCN21 (stereo not drawn) [Compound 7j, Ethyl 3-(benzenesulfonyl)-8-bromo-2-oxo-1,2,5,6-tetrahydropyrrolo[1,2-h][1,7]naphthyridine-8-carboxylate] |  |  |  |  | 
10 | 174 to 175 °C | CC(C)OC(=O)C1(Br)C=CC2=C3NC(=O)C(S(=O)(=O)c4ccccc4)C=C3CCN21 (stereo not drawn) [Compound 7k, Propan-2-yl 3-(benzenesulfonyl)-8-bromo-2-oxo-1,2,5,6-tetrahydropyrrolo[1,2-h][1,7]naphthyridine-8-carboxylate] |  |  |  |  | 
11 |  | CCOC(=O)c1ccc2n1CCCc1cc(S(=O)(=O)c3ccccc3)c(=O)[nH]c1-2 [Compound 8a, Ethyl 3-(benzenesulfonyl)-2-oxo-1,5,6,7-tetrahydro-2H-pyrido[2,3-c]pyrrolo[1,2-a]azepine-9-carboxylate] | > 50 µM | > 50 µM |  |  | 
12 |  | CC(C)OC(=O)c1ccc2n1CCCc1cc(S(=O)(=O)c3ccccc3)c(=O)[nH]c1-2 [Compound 8b, Propan-2-yl 3-(benzenesulfonyl)-2-oxo-1,5,6,7-tetrahydro-2H-pyrido[2,3-c]pyrrolo[1,2-a]azepine-9-carboxylate] | > 50 µM | > 50 µM |  |  | 
13 |  | CCOC(=O)c1ccc2n1CCCc1cc(S(=O)(=O)c3ccccc3)c(=O)n(C)c1-2 [Compound 8c, Ethyl 3-(benzenesulfonyl)-1-methyl-2-oxo-1,5,6,7-tetrahydro-2H-pyrido[2,3-c]pyrrolo[1,2-a]azepine-9-carboxylate] | > 50 µM | 24.9 ± 2.8 µM |  |  | 
14 |  | COc1nc2c(cc1S(=O)(=O)c1ccccc1)CCCn1c(C(=O)OC(C)C)ccc1-2 [Compound 8f, Propan-2-yl 3-(benzenesulfonyl)-2-methoxy-6,7-dihydro-5H-pyrido[2,3-c]pyrrolo[1,2-a]azepine-9-carboxylate] | > 50 µM | 23.7 ± 1.5 µM |  |  | 
15 | 172 to 173 °C | CCOC(=O)C1(Br)C=CC2=C3NC(=O)C(S(=O)(=O)c4ccccc4)C=C3CCCN21 (stereo not drawn) [Compound 8g, Ethyl 3-(benzenesulfonyl)-9-bromo-2-oxo-1,5,6,7-tetrahydro-2H-pyrido[2,3-c]pyrrolo[1,2-a]azepine-9-carboxylate] |  |  |  |  | 
16 | 167 to 168 °C | CC(C)OC(=O)C1(Br)C=CC2=C3NC(=O)C(S(=O)(=O)c4ccccc4)C=C3CCCN21 (stereo not drawn) [Compound 8h, Propan-2-yl 3-(benzenesulfonyl)-9-bromo-2-oxo-1,5,6,7-tetrahydro-2H-pyrido[2,3-c]pyrrolo[1,2-a]azepine-9-carboxylate] | > 50 µM | > 50 µM |  |  | completely ineffective in inhibiting cancer cell proliferation upon irradiation
